Source: US7625875B2 (priority 2002, dated 2009)

Experiments:
DENV 2 = assay: microbe, parasite or virus in culture; type: cell-based, dengue virus; conditions: Dengue virus, read-out: DENV 2
Sb-1 = assay: organism not typed; type: cell-based, Sabin type 1 poliomyelitis virus; conditions: read-out: Sb-1
[1] = Stability in human plasma
in vitro = conditions: human
[2] = Safety in the chimpanzee model of chronic HCV infection; type: in vivo; conditions: 10 or 20 mg/kg/day dihydrochloride PO, 7 days
Source text: Chimpanzees were monitored by trained veterinarians throughout the study for weight loss, temperature, appetite, and general well being, as well as for blood chemistry profile and CBCs. […] The drug appeared to be well tolerated by all four treated animals. […] A single animal experienced an alanine aminotransferase (ALT) flare in the pretreatment period prior to the start of dosing, but the ALT levels diminished during treatment. Thus, this isolated ALT event was not attributable to drug.

WNV = assay: microbe, parasite or virus in culture; type: cell-based, West Nile virus; conditions: West Nile virus, read-out: WNV
HCV = assay: Clinical antiviral activity, serum HCV RNA (Amplicor HCV Monitor), val-mCyd daily for 15 days

For CC(C)C(N)C(=O)OC1[C@@H](CO)O[C@@H](n2ccc(N)nc2=O)[C@@]1(C)O (some centres unmarked) [val-mCyd, 2-Amino-3-methyl-butyric acid 5-(4-amino-2-oxo-2H-pyrimidine-1-yl)-4-hydroxy-2 hydroxy-methyl-4-methyl-tetrahydro-furan-3-yl ester], the EC50 (DENV 2) was greater than 100 µM, the EC50 (Sb-1) was 14 µM and the “input val-mCyd remaining” value ([1]; 37° C., after 10 hours) was 2%. The half-life ([1]; human, plasma) was 1.81 h, the CC50 (in vitro) was 24 µM and the “adverse events, tolerability” value [2] was “No adverse events due to drug were noted”. For the same molecule, the EC50 (WNV) was 82 µM, the “HCV RNA in Log10 scale, mean” value (HCV; 50 mg, Day 1 (baseline)) was 6.72 log10 and the “HCV RNA in Log10 scale, median” value (HCV; 50 mg, Day 1 (baseline)) was 6.69 log10. For the same molecule, the “Change from baseline (Day 1) in Log10 HCV RNA, mean” value (“Change … in Log10 HCV RNA, mean” for short) (HCV; 50 mg, Day 2) was −0.13 log10, the “Change from baseline (Day 1) in Log10 HCV RNA, median” value (“Change … in Log10 HCV RNA, median” below) (HCV; 50 mg, Day 2) was −0.07 log10 and the “HCV RNA in Log10 scale, mean” value (HCV; 50 mg, Day 2) was 6.60 log10. For the same molecule, the “HCV RNA in Log10 scale, median” value (HCV; 50 mg, Day 2) was 6.58 log10, the “Change … in Log10 HCV RNA, mean” value (HCV; 50 mg, Day 4) was −0.16 log10 and the “Change … in Log10 HCV RNA, median” value (HCV; 50 mg, Day 4) was −0.13 log10. The “HCV RNA in Log10 scale, mean” value (HCV; 50 mg, Day 4) was 6.56 log10, the “HCV RNA in Log10 scale, median” value (HCV; 50 mg, Day 4) was 6.55 log10 and the “Change … in Log10 HCV RNA, mean” value (HCV; 50 mg, Day 8) was −0.11 log10. For the same molecule, the “Change … in Log10 HCV RNA, median” value (HCV; 50 mg, Day 8) was −0.06 log10, the “HCV RNA in Log10 scale, mean” value (HCV; 50 mg, Day 8) was 6.62 log10 and the “HCV RNA in Log10 scale, median” value (HCV; 50 mg, Day 8) was 6.56 log10. The “Change … in Log10 HCV RNA, mean” value (HCV; 50 mg, Day 11) was −0.26 log10, the “Change … in Log10 HCV RNA, median” value (HCV; 50 mg, Day 11) was −0.26 log10 and the “HCV RNA in Log10 scale, mean” value (HCV; 50 mg, Day 11) was 6.47 log10. For the same molecule, the “HCV RNA in Log10 scale, median” value (HCV; 50 mg, Day 11) was 6.46 log10, the “Change … in Log10 HCV RNA, mean” value (HCV; 50 mg, Day 15) was −0.15 log10 and the “Change … in Log10 HCV RNA, median” value (HCV; 50 mg, Day 15) was −0.10 log10. The “HCV RNA in Log10 scale, mean” value (HCV; 50 mg, Day 15) was 6.57 log10, the “HCV RNA in Log10 scale, median” value (HCV; 50 mg, Day 15) was 6.57 log10 and the “Change … in Log10 HCV RNA, mean” value (HCV; 50 mg, Day 16) was −0.15 log10. The “Change … in Log10 HCV RNA, median” value (HCV; 50 mg, Day 16) was −0.13 log10, the “HCV RNA in Log10 scale, mean” value (HCV; 50 mg, Day 16) was 6.57 log10 and the “HCV RNA in Log10 scale, median” value (HCV; 50 mg, Day 16) was 6.45 log10. For the same molecule, the “Change … in Log10 HCV RNA, mean” value (HCV; 50 mg, Day 17) was −0.18 log10, the “Change … in Log10 HCV RNA, median” value (HCV; 50 mg, Day 17) was −0.21 log10 and the “HCV RNA in Log10 scale, mean” value (HCV; 50 mg, Day 17) was 6.54 log10. The “HCV RNA in Log10 scale, median” value (HCV; 50 mg, Day 17) was 6.54 log10, the “Change … in Log10 HCV RNA, mean” value (HCV; 50 mg, Day 22) was −0.09 log10 and the “Change … in Log10 HCV RNA, median” value (HCV; 50 mg, Day 22) was −0.09 log10. For the same molecule, the “HCV RNA in Log10 scale, mean” value (HCV; 50 mg, Day 22) was 6.64 log10, the “HCV RNA in Log10 scale, median” value (HCV; 50 mg, Day 22) was 6.73 log10 and the “Change … in Log10 HCV RNA, mean” value (HCV; 50 mg, Day 29) was −0.01 log10. The “Change … in Log10 HCV RNA, median” value (HCV; 50 mg, Day 29) was −0.04 log10, the “HCV RNA in Log10 scale, mean” value (HCV; 50 mg, Day 29) was 6.71 log10 and the “HCV RNA in Log10 scale, median” value (HCV; 50 mg, Day 29) was 6.67 log10. For the same molecule, the “HCV RNA in Log10 scale, mean” value (HCV; 50 mg, Day −1 (pre-treatment)) was 6.72 log10, the “HCV RNA in Log10 scale, median” value (HCV; 50 mg, Day −1 (pre-treatment)) was 6.81 log10 and the “HCV RNA in Log10 scale, mean” value (HCV; 100 mg, Day 1 (baseline)) was 6.68 log10. For the same molecule, the “HCV RNA in Log10 scale, median” value (HCV; 100 mg, Day 1 (baseline)) was 6.93 log10, the “Change … in Log10 HCV RNA, mean” value (HCV; 100 mg, Day 2) was −0.16 log10 and the “Change … in Log10 HCV RNA, median” value (HCV; 100 mg, Day 2) was −0.12 log10. For the same molecule, the “HCV RNA in Log10 scale, mean” value (HCV; 100 mg, Day 2) was 6.52 log10, the “HCV RNA in Log10 scale, median” value (HCV; 100 mg, Day 2) was 6.80 log10 and the “Change … in Log10 HCV RNA, mean” value (HCV; 100 mg, Day 4) was −0.25 log10. The “Change … in Log10 HCV RNA, median” value (HCV; 100 mg, Day 4) was −0.24 log10 and the “HCV RNA in Log10 scale, mean” value (HCV; 100 mg, Day 4) was 6.43 log10.
